Experimental data as given in patent US8895555B2, “Methods of treating intestinal diseases and inflammatory conditions related to HIV-AIDS” (Bach Pharma, Inc., priority 2009, dated 2014).
Where two headings read alike, the source gives them in different places.

Key:
[1] = system: ts1 virus, a mutant of MoMuLV; details: mouse, in vivo
Excerpt: GVT® (sodium a-luminol) was provided by Bach-Pharma, Inc., North Andover, Mass. Goat anti-MoMuLV gp70 was from Microbiology Associates, Burlingame, Calif. (this antibody recognizes epitopes shared by the mature gp70 viral envelope protein and the precursor preprotein gPr80^env). Anti-mouse Ki67 was from Vector Laboratories, Burlingame, Calif. Polyclonal and monoclonal anti-mouse TSHI3 were from Cell Signaling (Boston, Mass.) and Dr. John R. Klein's laboratory, respectively. Mand rabbit anti-activated caspase-3 was from Cell Signaling. Mouse monoclonal anti Nrf2 was from R&D systems (Minneapolis, Minn.). FITC and Texas Red-conjugated anti-mouse, rat, rabbit and goat antibodies were from Jackson ImmunoResearch (West Grove, Pa.).
FVB/N mice were obtained from Taconic Farms (Germantown, N.Y.). Breeding FVB/N pairs were housed in sterilized microisolator cages and supplied with autoclaved feed and water ad libitum. The microisolators were kept in an environmentally controlled isolation room. For ts1 infection, four-day-old mice were inoculated intraperitoneally with 0.1 ml of vehicle (mock infection) or with 0.1 ml of a ts1 suspension containing 2×107 infectious units/ml.
For GVT treatment, animals from the control and ts1-infected groups are divided into two groups each […]. The infected mice are then divided again into two groups, one of whose individuals received 0.9% normal saline, intraperitoneally, five continuous days a week, followed by two resting days, until the end of the experiment. At the same time, mice from the other half of the infected animals received freshly prepared GVT, delivered intraperitoneally at 200 mg/kg body weight/day in 0.9% normal saline. The uninfected mice were also divided into two groups, one receiving saline alone, and the other receiving GVT as described above.
At 30 dpi, mice from all groups were sacrificed, and their small intestines (2 cm from the jejunum) processed for Western blotting of the tissues or for frozen section immunohistochemistry. All mice were observed daily for clinical signs of disease, and individuals from all groups were sacrificed at 30 dpi. Intestinal tissues to be used for Western blotting are removed, snap-frozen in liquid nitrogen and stored at −80° C. until use. For immunohistochemistry, intestine segments were snap-frozen in liquid nitrogen in OCT embedding compound. These animal protocols were approved by The University of Texas M.D. Anderson Cancer Center Institutional Animal Care and Use Committee.
Western blotting analysis was performed as described previously. Briefly, whole cell protein was extracted from whole intestines in radioimmunoprecipitation assay buffer (NP40, 0.5% sodium deoxycholate, 0.1% sodium dodecyl sulfate, 0.25 mM phenylmethylsulfonylfluoride, 1 mg/ml aprotinin, leupeptin, and pepstatin A, 1 mM sodium orthovanadate, and 1 mM sodium fluoride in phosphate-buffered saline, or PBS). Protein concentrations were measured using the Bio-Rad Dc protein assay reagent (Bio Rad Laboratories, Hercules, Calif.) as per the manufacturer's instructions. These lysates ([…] total protein per sample) were electrophoresed on 10% SDS-PAGE gels, and then transferred to polyvinylidene difluoride membranes (Millipore Corp, Bedford, Mass.). The membranes were blocked at room temperature for 1 hr in iris-buffered saline, or TBS, with 5% nonfat milk, and incubated with unconjugated primary antibody for 2 hrs, followed by 3 washes with TBS. The blots were then incubated with species-appropriate horseradish peroxidase-conjugated secondary antibody for an additional 1 hr. After three washes, immune complexes were detected by chemiluminescence (NEN Life Science Products, Boston, Mass.). A monoclonal anti-13-actin antibody (Sigma, St. Louis, Mo.) was used as a loading control. Values calculated as the ratio of their normalized values against this number.

[2] = system: ts1 virus; details: for disease course: T cell loss, thymic atrophy, wasting, death: ts1-infected mice treated with GVT
Excerpt: GVT® (monosodium luminol) was provided by Bach-Pharma, Inc., North Andover, Mass. Goat anti-MoMuLV gp70 was from Microbiology Associates, Burlingame, Calif. This antibody recognizes epitopes shared by the mature gp70 viral envelope protein and the precursor preprotein gPr80^env Monoclonal rabbit anti-cleaved caspase-3 was from Cell Signaling (Boston, Mass.). Mouse monoclonal anti-Nrf2 was from R&D systems (Minneapolis, Minn.). Polyclonal anticytokeratin-5 (CK5) and monoclonal anti-cytokeratin-8 (CK8) antibodies were from Covance Research (Richmond, Calif.) and the National Institutes of Health Developmental Studies Hybridoma Bank (Iowa City, Iowa), respectively. F1TC and Texas Red conjugated anti-mouse, rat, rabbit and goat antibodies were from Jackson ImmunoResearch (West Grove, Pa.).
5 (and 6)-chloromethyl-2′,7′-dichlorodihydrofluorescein diacetate (CM-H2DCFDA; Molecular Probes, Eugene, Oreg.; hereafter called DCFDA), is a cell-permeant indicator for intracellular ROS, including hydrogen peroxide and superoxide. The dye itself is non-fluorescent, but when its acetate groups are removed by intracellular esterases, it is oxidized to form a highly fluorescent derivative, carboxydichlorofluorescein. Freshly isolated thymocytes were prepared from uninfected, GVT-only, ts1-only and ts1-GVT-treated mice, at 30 dpi. The thymocytes were incubated with […] of DCFDA, in culture medium (RPMI 1640) at 37° C. for 30 mm. After this loading period, the cells were washed twice with PBS, lysed, and the fluorescence of their contents measured using a Synergy HT multi-detection microplate reader (BioTek Instruments, Inc., Winoski, Vt.). The data are expressed as means±standard deviation (SD) of relative fluorescence units (against a standard curve) for DCFDA-loaded thymocyte lysates for three mice of each treatment group (See FIG. 16).
FVB/N mice were obtained from Taconic Farms (Germantown, N.Y.). Breeding FVB/N pairs were housed in sterilized microisolator cages and supplied with autoclaved feed and water ad libitum. The microisolators were kept in an environmentally controlled isolation room. For ts1 infection, 4-day-old mice were inoculated intraperitoneally with 0.1 ml of vehicle (mock infection) or with 0.1 ml of a ts1 suspension containing 2×107 infectious units/ml. […] For GVT treatment, animals from the control and ts1 infected groups were divided into two groups each on the day of infection. Infected mice were then divided again into two groups, one of whose individuals received 0.9% normal saline, intraperitoneally, for five continuous days-a-week, followed by two resting days, until the end of the experiment, while the other half of the infected animals received freshly prepared GVT, delivered intraperitoneally at 200 mg/kg body weight/day in 0.9% normal saline. The uninfected mice were also divided into two groups, one receiving saline alone, and the other receiving GVT as described above. […] All mice were observed daily for clinical signs of disease, and the mice from all groups were sacrificed at 30 dpi.
Whole thymi that were to be used for Western blotting were removed, snap frozen in liquid nitrogen and stored at −80° C. until use. For immunohistochemistry, thymi were snap-frozen in liquid nitrogen in Optimal Cutting Temperature (OCT) embedding compound (Sakura Finetek USA, Torrance, Calif.). These experimental protocols were approved by The University of Texas M.D. Anderson Cancer Center's Institutional Animal Care and Use Committee. […]

[3] = system: acute intestine infections of different nature
Experimental: Clinical tests were performed on 56 patients suffering from acute intestine infections of different nature, accompanied by intoxication syndrome and diarrhea. All 56 patients had similar clinical manifestations, form and seriousness of the disease. The drug was prescribed to be used according to the following protocol: initial dose, 200 mg intramuscularly; then 3 hours later, a dose of 100 mg; and 3 hours later, a dose of 100 mg (400 mg per day).
In anamnesis of all patients no data of non-endurance or allergic reactions to any remedies was stated. GVT was administered to 54 patients within first hours after admission, before the application of traditional treatment methods, i.e., water-crystalloid solutions, vitamins, spasmolytics, as by acute dysentery and salmonellosis—antibacterial therapy.

[4] = system: MT-4 cells (HIV-infected or uninfected)
Experimental: HIV-1 infection of cultured T lymphoblastoid cells (MT4) causes a dramatic increase in intracellular ROS, and this is associated with cell death.
GVT was added to the cell culture every day for all six days of culture. HIV causes apoptosis of MT-4 cells, measurable when the cells are harvested at 6 dpi.

[5] = system: H9 cells (HIV-infected or uninfected)
[6] = GVT intramuscularly, 400 mg per day

SMILES: Nc1cccc2c(=O)[n-][nH]c(=O)c12.[Na+] [GVT, monosodium luminol]
- CD4-positive cells in the LP of intestinal villi [1]: present in the LP of villi
- Ki67 staining pattern (cell cycling) of intestinal epithelium [1]: limited to the crypts
- Nrf2 in intestinal epithelial cells (immunostaining) [1]: heavy loading with Nrf2
- Nrf2 levels in intestinal tissues (Western blot) [1]: significantly upregulated
- TSH expression pattern along crypt-villus axis (immunostaining) [1]: limited to the crypts
- TSH level in intestinal lysates (Western blot) [1]: what appear to be normal TSH levels
- cleaved caspase-3 in intestines (Western blot) [1]: absent
- gPr80env accumulation in intestinal lysate (anti-gp70 Western blot) [1]: only gp70 was present
- crypt-villus organization of small intestine (H&E and gp70 staining) ([1]; ip, 200 mg/kg/day): apparently normal crypt-villus organization
- Nrf2-positive cells in thymic sections (gp70/Nrf2 double staining) ([2]; ts1-GVT mice, 30 dpi): large numbers of red cellular profiles (Nrf2-positive only)
- thymic corticomedullary organization (H&E) ([2]; ts1-GVT mice, 30 dpi): normal corticomedullary organization
- thymus weight ([2]; ts1-GVT mice, 30 dpi): no thymic weight loss
- disease course: T cell loss, thymic atrophy, wasting, death [2]: delayed T cell loss and thymic atrophy for many weeks
- disease course: T cell loss, thymic atrophy, wasting, death ([2]; listed as monosodium luminol): significantly delays thymic atrophy, wasting, and death
- patients with body temperature normalized on the 1st or 2nd day of treatment ([3]; 53 patients of 56): 94.6%
- general weakness [3, 6]: disappeared on the 3rd day
- time to positive effect [3, 6]: ≤ 24 h
- intoxication ([3]; GVT intramuscularly, 400 mg per day, majority of patients): decrease in intoxication on the 1st and 2nd days
- viability of uninfected MT-4 cells ([4]; GVT added every day for 6 days of culture): increases the viability of uninfected cells
- apoptosis of HIV-infected MT-4 cells ([4]; GVT added every day for 6 days, harvested at 6 dpi): significantly reduces apoptosis
- survival of HIV-infected MT4 cells ([4]; HIV-1 infected, GVT-treated): the infected cells survive
- Nrf2 levels in MT-4 cells ([4]; days 1-6 dpi, infected or not): an increase
- viability of uninfected MT-4 cells ([4]; single dose on day 1): no effect on their viability
- effect on uninfected MT-4 cells (proliferation) ([4]; uninfected, FIG. 9): mitogenic
- ROS in uninfected H9 cells [5]: does not dramatically reduce ROS
